Experimental data published in article PMC12446468, “Anti-inflammatory and cytotoxic assessment of flavonoids isolated from Viola odorata flowers with computer-guided docking study” (Scientific Reports, 2025).
Marks after values point to notes of the source that are not given here.

How the values were obtained:
[1] = biological target: T1, COX-1 (Ovis aries, UniProt P05979); experiment: COX-1 inhibition assay (Cayman COX kit); format: biochemical, ovine/human; conditions: mean ± SE, n = 3
T1 construct: purchased Cayman 560131
T1 sequence (P05979 25-600): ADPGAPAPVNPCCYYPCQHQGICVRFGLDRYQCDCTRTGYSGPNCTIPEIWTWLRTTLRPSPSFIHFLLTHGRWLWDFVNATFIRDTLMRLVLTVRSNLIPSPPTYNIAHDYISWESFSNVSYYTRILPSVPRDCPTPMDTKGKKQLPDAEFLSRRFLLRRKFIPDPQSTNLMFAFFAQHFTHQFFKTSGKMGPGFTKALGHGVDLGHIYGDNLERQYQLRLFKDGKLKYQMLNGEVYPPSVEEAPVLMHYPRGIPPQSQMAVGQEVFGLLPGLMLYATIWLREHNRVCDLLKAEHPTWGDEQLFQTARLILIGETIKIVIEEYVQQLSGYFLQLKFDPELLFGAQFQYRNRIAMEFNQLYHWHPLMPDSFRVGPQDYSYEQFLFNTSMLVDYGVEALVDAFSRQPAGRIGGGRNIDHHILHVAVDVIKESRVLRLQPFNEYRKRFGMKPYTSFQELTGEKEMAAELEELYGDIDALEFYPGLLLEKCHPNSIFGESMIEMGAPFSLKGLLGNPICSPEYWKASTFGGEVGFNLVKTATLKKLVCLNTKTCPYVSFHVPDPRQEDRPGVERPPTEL
Text: (§1) The requirements for High-Performance Liquid Chromatography (HPLC) and all compounds tested were of the utmost analytical purity. […] COX-1 and COX-2 (ovine/human), as well as the 5-LOX enzyme (human recombinant) were obtained from Sigma-Aldrich. Dulbecco’s Modified Eagle’s Medium (DMEM), along with penicillin/streptomycin and L-glutamine, were acquired from Gibco BRL, California, USA. Fetal bovine serum (FBS) and 3-(4, 5-dimethylthiazol-2-yl)-2, 5-[…] (MTT) were supplied by Sigma-Aldrich, St. Louis, Missouri, USA.
(§2) The methanolic extract of V. odorata flowers and isolated flavonoids were subjected to an in vitro anti-inflammatory assessment by inhibiting two isoenzymes, cyclooxygenase COX-1 and COX-2 (ovine/human), as well as the 5-LOX enzyme (human recombinant).

[2] = biological target: T2, COX-2 (Homo sapiens, UniProt P35354); experiment: COX-2 inhibition assay (Cayman COX kit); format: biochemical, ovine/human
T2 construct: purchased Cayman 560131
T2 sequence (P35354 18-604): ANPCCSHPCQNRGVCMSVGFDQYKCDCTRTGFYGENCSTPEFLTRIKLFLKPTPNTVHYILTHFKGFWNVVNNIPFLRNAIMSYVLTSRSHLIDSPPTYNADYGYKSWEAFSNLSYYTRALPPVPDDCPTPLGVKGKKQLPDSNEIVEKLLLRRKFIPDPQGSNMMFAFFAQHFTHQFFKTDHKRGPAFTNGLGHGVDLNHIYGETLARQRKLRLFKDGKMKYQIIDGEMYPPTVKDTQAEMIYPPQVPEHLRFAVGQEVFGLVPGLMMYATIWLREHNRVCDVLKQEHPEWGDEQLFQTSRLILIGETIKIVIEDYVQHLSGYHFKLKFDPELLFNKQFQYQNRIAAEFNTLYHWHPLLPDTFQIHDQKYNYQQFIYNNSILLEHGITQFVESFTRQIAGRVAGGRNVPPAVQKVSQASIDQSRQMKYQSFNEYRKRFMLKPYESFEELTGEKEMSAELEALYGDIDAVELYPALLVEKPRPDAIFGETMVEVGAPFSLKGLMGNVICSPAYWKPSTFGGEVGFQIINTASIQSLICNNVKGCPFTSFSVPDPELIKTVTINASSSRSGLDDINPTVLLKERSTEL
Text: as §1, §2

[3] = biological target: T3, 5-LOX enzyme (human recombinant) (Homo sapiens, UniProt P09917); experiment: 5-lipoxygenase inhibition assay (5-LOX kit); format: biochemical; conditions: mean ± SE, n = 3
T3 construct: purchased Sigma-Aldrich 437996
T3 sequence (P09917 1-674): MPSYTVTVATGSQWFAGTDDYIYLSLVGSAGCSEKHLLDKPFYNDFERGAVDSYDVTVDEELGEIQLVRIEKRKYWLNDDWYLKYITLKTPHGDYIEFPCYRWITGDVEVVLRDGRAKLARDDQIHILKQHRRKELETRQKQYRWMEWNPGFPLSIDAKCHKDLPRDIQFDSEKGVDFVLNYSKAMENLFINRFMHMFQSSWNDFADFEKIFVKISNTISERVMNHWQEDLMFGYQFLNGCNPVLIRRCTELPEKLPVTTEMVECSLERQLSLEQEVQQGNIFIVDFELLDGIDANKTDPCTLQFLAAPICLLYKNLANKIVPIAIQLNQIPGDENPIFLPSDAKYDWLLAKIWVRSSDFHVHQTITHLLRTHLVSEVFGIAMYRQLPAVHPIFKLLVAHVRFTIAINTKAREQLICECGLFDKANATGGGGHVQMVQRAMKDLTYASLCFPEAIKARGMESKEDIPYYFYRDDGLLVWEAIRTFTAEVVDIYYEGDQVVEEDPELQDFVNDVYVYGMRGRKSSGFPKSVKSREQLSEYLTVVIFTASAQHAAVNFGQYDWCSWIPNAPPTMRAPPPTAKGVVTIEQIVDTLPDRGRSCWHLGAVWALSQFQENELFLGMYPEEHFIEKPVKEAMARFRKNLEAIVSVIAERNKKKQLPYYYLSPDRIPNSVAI
Text: as §1, §2

[4] = tested on: hepatocellular carcinoma (HepG2); experiment: MTT cytotoxicity assay, HepG2; format: cell-based, human; conditions: for % Cell viability / % Cytotoxicity: 48 h
Experimental: (§3) The assessment of cytotoxicity for the methanolic extract and isolated flavonoids was performed under controlled and sterile conditions within a Class II A2 Laminar flow biosafety cabinet. The carcinoma cell lines used in this study was obtained from Nawah Scientific Inc. (Cairo, Egypt). The cells were cultured in Dulbecco’s Modified Eagle’s Medium, enriched with 10% heat-inactivated fetal bovine serum, 100 U/ml penicillin, and 100 μg/ml streptomycin sulfate, maintained at […] in humidified incubators with 5% CO2. Upon reaching approximately 80% confluence, the cells were subcultured using a trypsin–EDTA solution. Harvesting occurred during the logarithmic growth phase. The methanolic extract and isolated flavonoids were dissolved in DMSO and stored at − 20 °C. For each experimental trial, the stock solutions were mixed with the culture medium to obtain the required final concentrations.
(§4) The effectiveness of the extract was compared to that of the reference drug, Doxorubicin. The percentage of cell viability was calculated by taking the ratio of the absorbance of the plant extract to that of the control, multiplied by 100. Furthermore, the IC50 value of the plant extract was determined using Sigma Plot software version 11 (Spw.exe) (https://sigmaplot.software.informer.com/11.0/).

[5] = tested on: human colonic epithelial cells (Caco-2); experiment: MTT cytotoxicity assay, Caco-2; format: cell-based; conditions: for % Cell viability / % Cytotoxicity: 48 h
Experimental: as §3, §4

[6] = tested on: human colorectal carcinoma cells (HTC-116); experiment: MTT cytotoxicity assay, HTC-116; format: cell-based; conditions: for % Cell viability / % Cytotoxicity: 48 h
Experimental: as §3, §4

## O=c1cc(-c2ccc(O)c(O)c2)oc2cc(O[C@@H]3O[C@H](CO)[C@@H](O)[C@H](O)[C@H]3O)cc(O)c12 [Luteolin 7-O-glucoside, luteolin 7-O-glucoside]
[1]
  IC50 values COX-1: 0.982 ± 0.09^c ug/ml
[2]; mean ± SE, n = 3
  IC50 values COX-2: 1.305 ± 0.14^b ug/ml
[2]; ratio of IC50 COX-1 to IC50 COX-2
  Selectivity Index (COX-1/COX-2): 0.75
[3]
  IC50 values 5-LOX: 0.915 ± 0.21^ab ug/ml
[4]; HepG2, 6.25 ug/ml
  % Cell viability: 70.35%
  % Cytotoxicity: 29.65%
[4]; HepG2, 12.5 ug/ml
  % Cell viability: 63.99%
  % Cytotoxicity: 36.01%
[4]; HepG2, 25 ug/ml
  % Cell viability: 42.58%
  % Cytotoxicity: 57.42%
[4]; HepG2, 50 ug/ml
  % Cell viability: 28.52%
  % Cytotoxicity: 71.48%
[4]; HepG2, 100 ug/ml
  % Cell viability: 14.11%
  % Cytotoxicity: 85.89%
[4]; HepG2, 48 h
  IC50: 28.23^c ug/ml
[5]; Caco-2, 6.25 ug/ml
  % Cell viability: 70.32%
  % Cytotoxicity: 29.68%
[5]; Caco-2, 12.5 ug/ml
  % Cell viability: 60.35%
  % Cytotoxicity: 39.65%
[5]; Caco-2, 25 ug/ml
  % Cell viability: 49.22%
  % Cytotoxicity: 50.78%
[5]; Caco-2, 50 ug/ml
  % Cell viability: 31.01%
  % Cytotoxicity: 68.99%
[5]; Caco-2, 100 ug/ml
  % Cell viability: 10.63%
  % Cytotoxicity: 89.37%
[5]; Caco-2, 48 h
  IC50: 29.42^c ug/ml
[6]; HTC-116, 6.25 ug/ml
  % Cell viability: 69.86%
  % Cytotoxicity: 30.14%
[6]; HTC-116, 12.5 ug/ml
  % Cell viability: 59.38%
  % Cytotoxicity: 40.62%
[6]; HTC-116, 25 ug/ml
  % Cell viability: 49.17%
  % Cytotoxicity: 50.83%
[6]; HTC-116, 50 ug/ml
  % Cell viability: 34.03%
  % Cytotoxicity: 65.97%
[6]; HTC-116, 100 ug/ml
  % Cell viability: 13.01%
  % Cytotoxicity: 86.99%
[6]; HTC-116, 48 h
  IC50: 30.17^c ug/ml
